Measured values taken from patent US11090304B2 (Amgen Inc., priority 2018, dated 2021).
Where two headings read alike, the source gives them in different places.

Columns and labels:
[1] = molecular target: GDP-bound KRAS protein (aa 1-169), containing both G12C and C118A amino acid substitutions (Homo sapiens, UniProt P01116, C118A/G12C); assay: Coupled nucleotide exchange assay (SOS-mediated, AlphaScreen); assay type: biochemical; details: for Coupled exchange IC50 (2 h): 2 h compound pre-incubation
Sequence of GDP-bound KRAS protein (aa 1-169), containing both G12C and C118A amino acid substitutions (P01116 1-169 isoform P01116-2 G12C/C118A): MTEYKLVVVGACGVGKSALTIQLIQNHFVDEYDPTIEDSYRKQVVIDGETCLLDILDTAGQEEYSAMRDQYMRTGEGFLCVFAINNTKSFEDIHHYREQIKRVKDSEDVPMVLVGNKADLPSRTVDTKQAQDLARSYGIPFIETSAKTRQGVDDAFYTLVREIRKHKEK

[2] = test system: Phosphorylation of ERK1/2 in A549 cells; assay: Phospho-ERK1/2 MSD assay in A549 cells; assay type: cell-based; details: Homo sapiens
Experimental: For compounds in Table 89, the following assay conditions were employed:
Phospho-ERK1/2 MSD Assay:
Sixteen hours prior to compound treatment, MIA PaCa-2 or A549 cells were seeded in 96-well cell culture plates at a density of 25,000 cells/well and incubated at 37° C., 5% CO2. A compound dose-response titration was diluted in growth media, added to appropriate wells of a cell culture plate, and then incubated at 37° C., 5% CO2 for 2 or 4 hours (see Table 15). Following compound treatment, cells were stimulated with 10 ng/mL EGF (Roche 11376454001) for 10 min, washed with ice-cold Dulbecco's phosphate-buffered saline, no Ca^2+ or Mg^2+ (ThermoFisher Scientific 14190144), and then lysed in RIPA buffer (50 mM Tris-HCl pH 7.5, 1% Igepal, 0.5% sodium deoxycholate, 150 mM NaCl, and 0.5% sodium dodecyl sulfate) containing protease inhibitors (Roche 4693132001) and phosphatase inhibitors (Roche 4906837001). Phosphorylation of ERK1/2 in compound-treated lysates was assayed using Phospho-ERK1/2 Whole Cell Lysate kits (Meso Scale Discovery K151DWD) according to the manufacturer's protocol. Assay plates were read on a Meso Scale Discovery Sector Imager 6000, and data were analyzed using a 4-parameter logistic model to calculate IC50 values.

[3] = test system: Phosphorylation of ERK1/2 in MIA PaCa-2 cells; assay: Phospho-ERK1/2 MSD assay in MIA PaCa-2 cells; assay type: cell-based; details: Homo sapiens
Procedure, shortened: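 In the procedure, cells were plated a day ahead at 25,000 per well. Next, a dilution series of compound in growth medium was added for 2 or 4 h. EGF (10 ng/mL) stimulation for 10 min preceded washing and RIPA lysis. Lysate phospho-ERK1/2 was read by MSD, with IC50 derived by 4-parameter logistic analysis.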

[4] = A549, 2 h, read-out: p-ERK IC50 (2 h; A549), 2 h compound treatment
[5] = MIA PaCa-2, 2 h, read-out: p-ERK IC50 (2 h; MIA PaCa-2), 2 h compound treatment
[6] = A549, 4 h, read-out: p-ERK IC50 (4 h; A549), 4 h compound treatment
[7] = MIA PaCa-2, 4 h, read-out: p-ERK IC50 (4 h; MIA PaCa-2), 4 h compound treatment

Coupled exchange IC50 (5 min) ([1]; 5 min compound pre-incubation)	IC50 [2, 4] [µM]	IC50 [3, 5] [µM]	Coupled exchange IC50 (2 h) [1]	IC50 [2, 6] [µM]	IC50 [3, 7] [µM]	SMILES	IC50 ([1]; read-out: Coupled exchange IC50 (5 min), 5 min compound pre-incubation) [µM]
0.147 | nda μM	≥ 10	0.086	–	–	–	C=CC(=O)N1CCN(c2nc(=O)n(-c3cccnc3C(C)C)c3nc(-c4ccccc4F)c(Cl)cc23)[C@@H](C)C1 [Example 54-9, 6-chloro-7-(2-fluorophenyl)-4-((2S)-2-methyl-4-(2-propenoyl)-1-piperazinyl)-1-(2-(2-propanyl)-3-pyridinyl) pyrido[2,3-d]pyrimidin-2(1H)-one]	–
0.185 | nda μM	≥ 10	0.182	–	–	–	C=CC(=O)N1CCN(c2nc(=O)n(-c3ccccc3C3CCC3)c3nc(-c4c(O)cccc4F)c(Cl)cc23)[C@@H](C)C1 [Example 54-10, 6-chloro-1-(2-cyclobutylphenyl)-7-(2-flnoro-6-hydroxyphenyl)-4-((2S)-2-methyl-4-(2-propenoyl)-1-piperazinyl) pyrido[2,3-d]pyrimidin-2(1H)-one]	–
0.069 | nda μM	≥ 10	0.063	–	–	–	C=CC(=O)N1CCN(c2nc(=O)n(-c3cccnc3C(C)C)c3nc(-c4c(O)cccc4F)c(Cl)cc23)[C@@H](C)C1 [Example 54-11, 6-chloro-7-(2-fluoro-6-hydroxyphenyl)-4-((2S)-2-methyl-4-(2-propenoyl)-1-piperazinyl)-1-(2-(2-propanyl)-3-pyridinyl) pyrido[2,3-d]pyrimidin-2(1H)-one]	–
0.289 | nda μM	≥ 10	0.162	–	–	–	C=CC(=O)N1CCN(c2nc(=O)n(-c3ccccc3C3CCC3)c3nc(-c4ccccc4F)c(Cl)cc23)[C@@H](C)C1 [Example 54-12, 6-chloro-1-(2-cydobutyl-phenyl)-7-(2-fluorophenyl)-4-((2S)-2-methyl-4-(2-propenoyl)-1-piperazinyl) pyrido[2,3-d]pyrirnidin-2(1H)-one]	–
0.811 | nda μM	≥ 10	2.56	–	–	–	C=CC(=O)N1CCN(c2nc(=O)n(-c3nccn3C(C)C)c3nc(-c4c(O)cccc4F)c(Cl)cc23)[C@@H](C)C1 [Example 54-13, 6-chloro-7-(2-fluoro-6-hydroxy-phenyl)-4-((2S)-2-methyl-4-(2-propenoyl)-1-piperazinyl)-1-(1-(2-propanyl)-1H-imidazol-2-yl)pyrido[2,3-d]pyrimidin-2(1H)-one]	–
0.347 µM	≥ 33.3	0.245	0.097 µM	–	–	C=CC(=O)N1CCN(c2nc(=O)n(-c3c(CC)cccc3CC)c3nc(-c4ccccc4C4CC4)c(Cl)cc23)[C@@H](C)C1 [Example 54-22, 6-chloro-7-(2-cyclopropyl-phenyl)-1-(2,6-diethyl-phenyl)-4-((2S)-2-methyl-4-(2-propenoyl)-1-piperazinyl) pyrido[2,3-d]pyrimidin-2(1H)-one]	–
0.103 | nda μM	≥ 10	0.122	–	–	–	C=CC(=O)N1CCN(c2nc(=O)n(-c3c(CC)cccc3CC)c3nc(-c4ccccc4C(C)C)c(Cl)cc23)[C@@H](C)C1 [Example 54-23, 6-chloro-1-(2,6-diethylphenyl)-4-((2S)-2-methyl-4-(2-propenoyl)-1-piperazinyl)-7-(2-(2-propanyl)phenyl)pyrido [2,3-d]pyrimidin-2(1H)-one]	–
0.797 | nda μM	≥ 10	0.942	–	–	–	C=CC(=O)N1CCN(c2nc(=O)n(-c3nocc3C3CC3)c3nc(-c4c(O)cccc4F)c(Cl)cc23)[C@@H](C)C1 [Example 54-24, 6-chloro-1-(4-cyclopropyl-1,2-oxazol-3-yl)-7-(2-fluoro-6-hydroxyphenyl)-4-((2S)-2-methyl-4-(2-propenoyl)-1-piperazinyl) pyrido[2,3-d]pyrimidin-2(1H)-one]	–
0.824 | nda μM	≥ 10	0.453	–	–	–	C=CC(=O)N1CCN(c2nc(=O)n(-c3c(Cl)cccc3Cl)c3nc(-c4ccccc4F)c(Cl)cc23)[C@@H](C)C1 [Example 54-30, 6-chloro-1-(2,6-dichlorophenyl)-7-(2-fluorophenyl)-4-((2S)-2-methyl-4-(2-propenoyl)-1-piperazinyl) pyrido[2,3-d]pyrimidin-2(1H)-one]	–
0.395 | nda μM	≥ 10	0.237	–	–	–	C=CC(=O)N1CCN(c2nc(=O)n(-c3ccccc3CC)c3nc(-c4ccccc4F)c(Cl)cc23)[C@@H](C)C1 [Example 54-31, 6-chloro-1-(2-ethylphenyl)-7-(2-fluorophenyl)-4-((2S)-2-methyl-4-(2-propenoyl)-1-piperazinyl) pyrido[2,3-d]pyrimidin-2(1H)-one]	–
1.963 | nda μM	≥ 10	0.796	–	–	–	C=CC(=O)N1CCN(c2nc(=O)n(-c3ccccc3Cl)c3nc(-c4ccccc4F)c(Cl)cc23)[C@@H](C)C1 [Example 54-32, 6-chloro-1-(2-chlorophenyl)-7-(2-fluorophenyl)-4-((2S)-2-methyl-4-(2-propenoyl)-1-piperazinyl) pyrido[2,3-d]pyrimidin-2(1H)-one]	–
0.176 | nda μM	≥ 10	0.215	–	–	–	C=CC(=O)N1CCN(c2nc(=O)n(-c3c(Cl)cccc3Cl)c3nc(-c4c(O)cccc4F)c(Cl)cc23)[C@@H](C)C1 [Example 54-33, 6-chloro-1-(2,6-dichlorophenyl)-7-(2-fluoro-6-hydroxyphenyl)-4-((2S)-2-methyl-4-(2-propenoyl)-1-piperazinyl) pyrido[2,3-d]pyrimidin-2(1H)-one]	–
0.724 | nda μM	≥ 10	2.9	–	–	–	C=CC(=O)N1CCN(c2nc(=O)n(-c3c(C)cncc3C)c3nc(-c4c(O)cccc4F)c(Cl)cc23)[C@@H](C)C1 [Example 54-41, 6-chloro-1-(3,5-dimethyl-4-pyridinyl)-7-(2-fluoro-6-hydroxyphenyl)-4-((2S)-2-methyl-4-(2-propenoyl)-1-piperazinyl) pyrido[2,3-d]pyrimidin-2(1H)-one]	–
0.779 | nda μM	≥ 10	2.38	–	–	–	C=CC(=O)N1CCN(c2nc(=O)n(-c3c(C)ncnc3C)c3nc(-c4c(O)cccc4F)c(Cl)cc23)[C@@H](C)C1 [Example 54-48, 6-chloro-1-(4,6-dimethyl-5-pyrimidinyl)-7-(2-fluoro-6-hydroxyphenyl)-4-((2S)-2-methyl-4-(2-propenoyl)-1-piperazinyl) pyrido[2,3-d]pyrimidin-2(1H)-one]	–
0.22 | nda μM	≥ 10	0.712	–	–	–	C=CC(=O)N1CCN(c2nc(=O)n(-c3ccncc3C3CC3)c3nc(-c4c(O)cccc4F)c(Cl)cc23)[C@@H](C)C1 [Example 54-59, 6~chloro-1-(3-cyclopropyl-4-pyridinyl)-7-(2-fluoro-6-hydroxyphenyl)-4-((2S)-2-methyl-4-(2-propenoyl)-1-piperazinyl) pyrido[2,3-d]pyrimidin-2(1H)-one]	–
0.216 µM	≥ 10	0.145	0.093 µM	≥ 11.1	0.091	C=CC(=O)N1CCN(c2nc(=O)n(-c3c(CC)cccc3CC)c3nc(-c4ccccc4F)c(Cl)cc23)[C@@H](C)C1 [Example 54-60, 6-ehloro-1-(2,6-diethylphenyl)-7-(2-fluorophenyl)-4-((2S)-2-methyl-4-(2-propenoyl)-1-piperazinyl) pyrido[2,3-d]pyrimidin-2(1H)-one]	–
–	–	–	nda | 0.379 μM	≥ 11.1	1.37	C=CC(=O)N1CCN(c2nc(=O)n(-c3c(CC)cccc3CC)c3nc(Cl)c(Cl)cc23)[C@@H](C)C1 [Example 54-61, 6,7-dichloro-1-(2,6-diethylphenyl)-4-((2S)-2-methyl-4-(2-propenoyl)-1-piperazinyl) pyrido[2,3-d]pyrimidin-2(1H)-one]	–

SMILES	Coupled exchange IC50 (5 min) ([1]; 5 min compound pre-incubation)	IC50 [2, 4] [µM]	IC50 [3, 5] [µM]	Coupled exchange IC50 (2 h) [1]	IC50 [2, 6] [µM]	IC50 [3, 7] [µM]	IC50 ([1]; read-out: Coupled exchange IC50 (5 min), 5 min compound pre-incubation) [µM]
C=CC(=O)N1CCN(c2nc(=O)n(-c3ncccc3C(C)C)c3nc(-c4c(O)cccc4F)c(Cl)cc23)[C@@H](C)C1 [Example 54-57, 6-chloro-7-(2-fluoro-6-hydroxyphenyl)-4-((2S)-2-methyl-4-(2-propenoyl)-1-piperazinyl)-1-(3-(2-propanyl)-2-pyridinyl) pyrido[2,3-d]pyrimidin-2(1H)-one]	–	≥ 10	0.053	–	–	–	0.083
